What was measured:
serum albumin = target: T1, serum albumin (Homo sapiens, UniProt P02768); assay: EPR spectroscopy of spin probe binding to primary and secondary binding sites of serum albumin in patient serum
T1 construct: from tissue; host or cells: blood serum of patients (whole blood centrifugation)
Excerpt: At the condition of binding equilibrium in the mixture of sample aliquot, probe, and solvent, the binding efficiencies (BE1 and BE2) of specific (primary) and non-specific (secondary) hydrophobic binding sites of serum albumin can be calculated using the concentrations of the probe bound on the primary site of albumin (B1), on the secondary albumin site (B2) and unbound probe concentration (F), and solvent concentration (S) in the mixture. For example, can be calculated with either: 1/BE1=1/(Kb1·N1)=(Sc/S−1)·(F/B1)·P·(1−B1/(P·N1)) (2) 1/BE2=1/(Kb2·N2)=(Sc/S−1)·(F/B2)·P·(1−B2/(P·N2)) (3) where Sc=0.27 volume percent is the critical concentration of the solvent (as described above), P is the concentration of serum albumin in the sample, N1 is the number of specific or primary binding sites for the probe on the serum albumin molecule, N2 is the number of non-specific or secondary binding sites for the probe between the albumin on the serum albumin molecule. Generally, where the probe is a long chain fatty acid, N1=7 and N2 is from 6 to 8 for purified albumin. For native serum albumin of a healthy person N1 is from 4 to 7, and N2 is from 3 to 7. In native serum samples, typically the relative concentration of the spin probe bound on primary site, parameter B1/P, is about 0.5; and parameter B2/P is about 0.4. Therefore, the binding efficiencies BE1 and BE2 can be calculated (within about 10%) using the approximate formulas: 1/BE1=(Sc/S−1)·(F/B1)·P (2a) 1/BE2=(Sc/S−1)·(F/B2)·P (3a)
In Table 2, B1 and B2 are relative concentrations of the probe bound on primary and secondary sites of albumin, F is the relative concentration of unbound probe, B1/F and B2/F are parameters representing the binding efficiency of the primary and secondary binding sites of albumin, DP is discriminating parameter designed by square discriminant analysis using a set of probe binding parameters.
Blood serum was obtained by whole blood centrifugation. An aliquot of 50 μl of serum from each patient was used for each test. A spin probe of 2-(14-carboxytetradecyl)-2-ethyl-4,4-dimethyl-3-oxazolidinyloxy (purchased from Fluorochem Ltd., Derbyshire, UK) was mixed into the aliquot at a concentration of 1.64 mmol/l. A solvent, 14 μl of ethanol, was mixed into the aliquot. The molar ratio of the probe to serum albumin in the aliquot was 3.5, based on an albumin concentration in the serum of 4 g/dL. The mixture was then incubated for 10 min at 37° C. with continuous agitation in a standard shaker operated at about 5-8 Hz.
After incubation, the probe was placed into a glass capillary (e.g., Model No. RM-40, available from KABE LABORTECHNIK GmbH, Numbrecht-Elsenroth, Germany).
The EPR spectrum of the mixture was then measured, as described below. The above-described capillary was placed into the resonator of an EPR spectrometer for spectroscopic analysis. The spectroscopy parameters were as follows: microwave power 15 mW at frequency 9.52 GHz; magnetic field 0.34 T (3400 G) with scan range 12 mT (120 G); modulation amplitude 0.2 mT (2 G); data accumulation by three scans each with 4096 measured points and a sweep time 60 s. The capillary temperature was 37° C., and was controlled within +/−0.2° C.
The EPR spectrum was analyzed by computer using an EPR-spectrum simulation with nonlinear least-squares fits. The spectrum model included five components. The first two are the B and C components which represent portions of the probe that were bound differently on serum albumin. As shown here, the B and C components primarily differed by spectral parameters of A tensors (hyperfine splitting tensor): A∥(B)=30.02 Oe, A⊥(B)=9.02 Oe, A∥(C)=21.5 Oe, and A⊥(C)=13.35 Oe. Parameters of the g tensor used in the spectral calculations of these two components were: g∥(B)=1.9983, g⊥(B)=2.0019, g∥(C)=1.9990, and g⊥(C)=2.0013. The third D component represented the unbound spin probe residing free in the sample. The parameters of the D component were: A∥(D)=A⊥(D)=15.6 Oe, and g∥(D)=g⊥(D)=2.0008. […]

albumin = albumin (Homo sapiens, UniProt P02768); conditions: affinity of albumin for unlabeled stearic acid; cited from earlier work
[1] = cancer-free persons, Mean, serum albumin 0.47 mmol, spin probe 1.64 mmol, ethanol 0.22 volume percent
[2] = patients with active malignancies, Max
[3] = patients with active malignancies, Mean
[4] = patients with active malignancies, Mean, serum albumin 0.47 mmol, spin probe 1.64 mmol, ethanol 0.22 volume percent
[5] = patients with active malignancies, Min

T1 sequence (P02768 25-609): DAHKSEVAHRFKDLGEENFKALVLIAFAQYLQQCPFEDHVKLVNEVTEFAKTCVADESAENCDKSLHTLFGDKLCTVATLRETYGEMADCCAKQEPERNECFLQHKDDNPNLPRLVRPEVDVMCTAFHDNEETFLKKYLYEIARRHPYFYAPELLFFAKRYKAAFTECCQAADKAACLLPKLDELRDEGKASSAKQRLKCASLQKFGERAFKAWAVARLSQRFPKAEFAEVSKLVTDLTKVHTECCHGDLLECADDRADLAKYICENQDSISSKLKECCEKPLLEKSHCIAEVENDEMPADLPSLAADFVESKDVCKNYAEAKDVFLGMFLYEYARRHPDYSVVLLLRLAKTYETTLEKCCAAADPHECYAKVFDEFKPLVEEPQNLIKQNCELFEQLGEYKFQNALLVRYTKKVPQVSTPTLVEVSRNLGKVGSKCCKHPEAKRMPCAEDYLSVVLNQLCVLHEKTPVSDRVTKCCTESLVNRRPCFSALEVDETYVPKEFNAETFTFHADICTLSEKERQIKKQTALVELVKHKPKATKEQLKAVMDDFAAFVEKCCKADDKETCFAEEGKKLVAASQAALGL
Sequence of albumin (P02768 25-609, species assumed): as the sequence (P02768 25-609) above

CCC1(CCCCCCCCCCCCCCC(=O)O)OCC(C)(C)N1[O] (stereo not shown) [16-doxyl stearic acid, 2-(14-carboxytetradecyl)-2-ethyl-4,4-dimethyl-3-oxazolidinyloxy]
B1, relative concentration of probe bound on primary sites of albumin (serum albumin; cancer-free persons, Max): 0.60 | B1/F, binding efficiency of primary binding sites of albumin (serum albumin; cancer-free persons, Max): 54.4 | B2, relative concentration of probe bound on secondary sites of albumin (serum albumin; cancer-free persons, Max): 0.45 | B2/F, binding efficiency of secondary binding sites of albumin (serum albumin; cancer-free persons, Max): 37.5 | DP, discriminating parameter (serum albumin; cancer-free persons, Max): −0.3 | F, relative concentration of unbound probe (serum albumin; cancer-free persons, Max): 0.044 | B1/F, binding efficiency of primary binding sites of albumin (serum albumin; cancer-free persons, Mean): 21.8 | B2/F, binding efficiency of secondary binding sites of albumin (serum albumin; cancer-free persons, Mean): 15.8 | DP, discriminating parameter (serum albumin; cancer-free persons, Mean): −3.3 | B1, relative concentration of probe bound on primary sites of albumin (serum albumin; [1]): 0.52 | B2, relative concentration of probe bound on secondary sites of albumin (serum albumin; [1]): 0.38 | F, relative concentration of unbound probe (serum albumin; [1]): 0.026 | B1, relative concentration of probe bound on primary sites of albumin (serum albumin; cancer-free persons, Min): 0.40 | B1/F, binding efficiency of primary binding sites of albumin (serum albumin; cancer-free persons, Min): 10.4 | B2, relative concentration of probe bound on secondary sites of albumin (serum albumin; cancer-free persons, Min): 0.34 | B2/F, binding efficiency of secondary binding sites of albumin (serum albumin; cancer-free persons, Min): 8.5 | DP, discriminating parameter (serum albumin; cancer-free persons, Min): −5.2 | F, relative concentration of unbound probe (serum albumin; cancer-free persons, Min): 0.010 | B1, relative concentration of probe bound on primary sites of albumin (serum albumin; [2]): 0.54 | B1/F, binding efficiency of primary binding sites of albumin (serum albumin; [2]): 11.4 | B2, relative concentration of probe bound on secondary sites of albumin (serum albumin; [2]): 0.38 | B2/F, binding efficiency of secondary binding sites of albumin (serum albumin; [2]): 6.5 | DP, discriminating parameter (serum albumin; [2]): 66.0 | F, relative concentration of unbound probe (serum albumin; [2]): 0.155 | B1/F, binding efficiency of primary binding sites of albumin (serum albumin; [3]): 5.9 | B2/F, binding efficiency of secondary binding sites of albumin (serum albumin; [3]): 4.5 | DP, discriminating parameter (serum albumin; [3]): 8.0 | B1, relative concentration of probe bound on primary sites of albumin (serum albumin; [4]): 0.44 | B2, relative concentration of probe bound on secondary sites of albumin (serum albumin; [4]): 0.33 | F, relative concentration of unbound probe (serum albumin; [4]): 0.079 | B1, relative concentration of probe bound on primary sites of albumin (serum albumin; [5]): 0.32 | B1/F, binding efficiency of primary binding sites of albumin (serum albumin; [5]): 2.3 | B2, relative concentration of probe bound on secondary sites of albumin (serum albumin; [5]): 0.23 | B2/F, binding efficiency of secondary binding sites of albumin (serum albumin; [5]): 1.6 | DP, discriminating parameter (serum albumin; [5]): 0.1 | F, relative concentration of unbound probe (serum albumin; [5]): 0.047

CCCCCCCCCCCCCCCCCC(=O)O [stearic acid]
binding constant (albumin): about 10^9 mol^−1

Source: patent US9528992B2, “Methods and kits for detection of active malignancy” (priority 2012, dated 2016)
